Experiments:
rat C6 glioma cells [1] = assay: In vitro drug efficiency assay, survival rate of glioma cells; type: cell-based; conditions: 72 h
Description: (§1) For each concentration group, 4 replicates were set up. The whole experiment was independently repeated 3 times.
The survival rate of rat glioma C6 cells with addition of Rg3 group, Rg3-blank group, PTX group, PTX+Rg3 group, PTX-Cho-Lipo group and PTX-Rg3-Gipo group at various concentrations respectively are listed in Table 11 and FIG. 12.

[2] = system: in-situ glioma model (C6 cells); assay: Survival curve and median survival day; type: in vivo, nude mice
[3] = system: human gastric cancer cells (BGC-823); assay: In vitro cell viability assay; type: cell-based; set-up: unit not given here
Description: as §1

rat C6 glioma cells [4] = assay: In vitro drug efficiency assay, survival rate of glioma cells; type: cell-based; conditions: rat, 72 h
[5] = system: human breast cancer cell line (4T1); assay: In vitro drug efficacy assay, cell survival rate (Rh2/PTX groups)
Description: Logarithmically growing tumor cells were collected and resuspended in DMEM complete medium supplemented with 10% fetal bovine serum, 100 U/ml penicillin and 100 μg/ml streptomycin to a final cell density of 4×10^4 cells/ml. Then, 200 μl cell suspension solution was seeded into each well of a 96-well plate (with a concentration of 8×10^3 cells/well) and the plate was cultured in a CO2 cell culture incubator at 37° C. […] The group without replacing DMEM complete medium by anti-cancer drug solution was used as negative control. For each concentration group, 4 replicates were set up. The whole experiment was independently repeated 3 times. The cells were continuously cultured in a CO2 cell culture incubator at 37° C. […] Then discarded the supernatant, added 150 μl DMSO into each well, and shaked the plate for 10 min. The absorbance was measured at 490 nm using a microplate reader (Tecan infinite M 200 TECAN, Switzerland). The cell survival rate is calculated according to the following formula:

Structure (SMILES): CC(=O)O[C@H]1C(=O)[C@@]2(C)[C@H]([C@H](OC(=O)c3ccccc3)[C@]3(O)C[C@H](OC(=O)[C@H](O)[C@@H](NC(=O)c4ccccc4)c4ccccc4)C(C)=C1C3(C)C)[C@]1(OC(C)=O)CO[C@@H]1C[C@@H]2O [PTX, paclitaxel]
- Cell Viability (rat C6 glioma cells [1]; 0.0046 μg/ml): 73.2867
- Cell Viability (rat C6 glioma cells [1]; 0.0412 μg/ml): 60.49
- Cell Viability (rat C6 glioma cells [1]; 0.1235 μg/ml): 49.91
- Cell Viability (rat C6 glioma cells [1]; 0.37 μg/ml): 45.98
- Cell Viability (rat C6 glioma cells [1]; 1.111 μg/ml): 43.89
- Cell Viability (rat C6 glioma cells [1]; 3.333 μg/ml): 43.21
- Median survial ([2]; tail vein 10 mg·kg^−1): 27 days
- number of survived mice ([2]; tail vein 10 mg·kg^−1, Time 12 d): 10
- number of survived mice ([2]; tail vein 10 mg·kg^−1, Time 14 d): 10
- number of survived mice ([2]; tail vein 10 mg·kg^−1, Time 16 d): 9
- number of survived mice ([2]; tail vein 10 mg·kg^−1, Time 18 d): 8
- number of survived mice ([2]; tail vein 10 mg·kg^−1, Time 20 d): 7
- number of survived mice ([2]; tail vein 10 mg·kg^−1, Time 22 d): 6
- number of survived mice ([2]; tail vein 10 mg·kg^−1, Time 24 d): 6
- number of survived mice ([2]; tail vein 10 mg·kg^−1, Time 26 d): 5
- number of survived mice ([2]; tail vein 10 mg·kg^−1, Time 28 d): 4
- number of survived mice ([2]; tail vein 10 mg·kg^−1, Time 30 d): 4
- number of survived mice ([2]; tail vein 10 mg·kg^−1, Time 32 d): 4
- number of survived mice ([2]; tail vein 10 mg·kg^−1, Time 34 d): 3
- number of survived mice ([2]; tail vein 10 mg·kg^−1, Time 36 d): 1
- number of survived mice ([2]; tail vein 10 mg·kg^−1, Time 38 d): 1
- number of survived mice ([2]; tail vein 10 mg·kg^−1, Time 40 d): 0
- number of survived mice ([2]; tail vein 10 mg·kg^−1, Time 42 d): 0
- number of survived mice ([2]; tail vein 10 mg·kg^−1, Time 44 d): 0
- number of survived mice ([2]; tail vein 10 mg·kg^−1, Time 46 d): 0
- number of survived mice ([2]; tail vein 10 mg·kg^−1, Time 48 d): 0
- number of survived mice ([2]; tail vein 10 mg·kg^−1, Time 50 d): 0
- number of survived mice ([2]; tail vein 10 mg·kg^−1, Time 52 d): 0
- number of survived mice ([2]; tail vein 10 mg·kg^−1, Time 54 d): 0
- number of survived mice ([2]; tail vein 10 mg·kg^−1, Time 56 d): 0
- number of survived mice ([2]; tail vein 10 mg·kg^−1, Time 58 d): 0
- number of survived mice ([2]; tail vein 10 mg·kg^−1, Time 60 d): 0
- number of survived mice ([2]; tail vein 10 mg·kg^−1, Time 62 d): 0
- Cell Viability ([3]; listed as 1 of 9, PTX series C 0.0027-6 μg/mL ascending (8 levels)): 91.9
- Cell Viability ([3]; listed as 2 of 9, PTX series C 0.0027-6 μg/mL ascending (8 levels)): 80.5
- Cell Viability ([3]; listed as 3 of 9, PTX series C 0.0027-6 μg/mL ascending (8 levels)): 60.9
- Cell Viability ([3]; listed as 4 of 9, PTX series C 0.0027-6 μg/mL ascending (8 levels)): 50.3
- Cell Viability ([3]; listed as 5 of 9, PTX series C 0.0027-6 μg/mL ascending (8 levels)): 41.6
- Cell Viability ([3]; listed as 6 of 9, PTX series C 0.0027-6 μg/mL ascending (8 levels)): 42.7
- Cell Viability ([3]; listed as 7 of 9, PTX series C 0.0027-6 μg/mL ascending (8 levels)): 38.0
- Cell Viability ([3]; listed as 8 of 9, PTX series C 0.0027-6 μg/mL ascending (8 levels)): 33.2
- Cell Viability ([3]; listed as 9 of 9, PTX series C 0.0027-6 μg/mL ascending (8 levels)): 32.2
- Cell Viability (rat C6 glioma cells [4]; 0.0005 μg/ml): 100
- Cell Viability (rat C6 glioma cells [4]; 0.0015 μg/ml): 79.49
- Cell Viability (rat C6 glioma cells [4]; 0.0137 μg/ml): 65.36
- Cell Viability (rat C6 glioma cells [4]; 10 μg/ml): 39.59
- Cell Viability ([5]; 4T1, C 0.00091 μM): 106.72
- Cell Viability ([5]; 4T1, C 0.00274 μM): 94.70
- Cell Viability ([5]; 4T1, C 0.00823 μM): 59.19
- Cell Viability ([5]; 4T1, C 0.02469 μM): 55.83
- Cell Viability ([5]; 4T1, C 0.07407 μM): 49.25
- Cell Viability ([5]; 4T1, C 0.22222 μM): 48.48
- Cell Viability ([5]; 4T1, C 0.66667 μM): 48.54
- Cell Viability ([5]; 4T1, C 2.00000 μM): 52.00

From patent US11858958B2, “Blank liposome with ginsenoside Rg3 or its analog as membrane materials and preparations and uses thereof” (Shanghai Ginsome Pharmatech Co., Ltd., priority 2018, dated 2024)
